From PubChem BioAssay (NCI)
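Step 1: Grow cells in 96-well plates. Step 2: Expose to compound for 48 hours at 5 concentrations. Step 3: Interpolate endpoints linearly; if unreached, use highest concentration. GI50 = concentration required for 50% inhibition of growth. At the TGI there is no net growth.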

How the values were obtained:
Test in all cases: NCI anticancer screen, dose series, 48 h
786-0 renal = system: 786-0 renal
A498 renal = system: A498 renal
A549 NSCLC = system: A549 NSCLC
ACHN renal = system: ACHN renal
BT-549 breast = system: BT-549 breast
CAKI-1 renal = system: CAKI-1 renal
CCRF-CEM leukemia = system: CCRF-CEM leukemia
COLO 205 colon = system: COLO 205 colon
DU-145 prostate = system: DU-145 prostate
EKVX NSCLC = system: EKVX NSCLC
HCC-2998 colon = system: HCC-2998 colon
HCT-116 colon = system: HCT-116 colon
HCT-15 colon = system: HCT-15 colon
HL-60(TB) leukemia = system: HL-60(TB) leukemia
HOP-62 NSCLC = system: HOP-62 NSCLC
HOP-92 NSCLC = system: HOP-92 NSCLC
HS 578T breast = system: HS 578T breast
HT29 colon = system: HT29 colon
IGROV1 ovarian = system: IGROV1 ovarian
K-562 leukemia = system: K-562 leukemia
KM12 colon = system: KM12 colon
LOX IMVI melanoma = system: LOX IMVI melanoma
M14 melanoma = system: M14 melanoma
MALME-3M melanoma = system: MALME-3M melanoma
MCF7 breast = system: MCF7 breast
MDA-MB-231 breast = system: MDA-MB-231 breast
MDA-MB-435 = system: MDA-MB-435
MOLT-4 leukemia = system: MOLT-4 leukemia
NCI-H226 lung = system: NCI-H226 lung
NCI-H23 lung = system: NCI-H23 lung
NCI-H460 lung = system: NCI-H460 lung
NCI-H522 lung = system: NCI-H522 lung
NCI/ADR-RES ovarian = system: NCI/ADR-RES ovarian
OVCAR-3 ovarian = system: OVCAR-3 ovarian
OVCAR-4 ovarian = system: OVCAR-4 ovarian
OVCAR-5 ovarian = system: OVCAR-5 ovarian
OVCAR-8 ovarian = system: OVCAR-8 ovarian
PC-3 prostate = system: PC-3 prostate
RPMI-8226 leukemia = system: RPMI-8226 leukemia
RXF 393 renal = system: RXF 393 renal
SF-268 CNS = system: SF-268 CNS
SF-295 CNS = system: SF-295 CNS
SF-539 CNS = system: SF-539 CNS
SK-MEL-2 melanoma = system: SK-MEL-2 melanoma
SK-MEL-28 melanoma = system: SK-MEL-28 melanoma
SK-MEL-5 melanoma = system: SK-MEL-5 melanoma
SK-OV-3 ovarian = system: SK-OV-3 ovarian
SN12C renal = system: SN12C renal
SNB-19 CNS = system: SNB-19 CNS
SNB-75 CNS = system: SNB-75 CNS
SR leukemia = system: SR leukemia
SW-620 colon = system: SW-620 colon
T-47D breast = system: T-47D breast
TK-10 renal = system: TK-10 renal
U251 CNS = system: U251 CNS
UACC-257 melanoma = system: UACC-257 melanoma
UACC-62 melanoma = system: UACC-62 melanoma
UO-31 renal = system: UO-31 renal

COc1ccc2c(c1)O/C(=C\c1cccc(OCC(=O)Nc3nc(C)c(C)s3)c1)C2=O
GI50 (786-0 renal): 0.715 µM | TGI (786-0 renal): 2.08 µM | GI50 (A498 renal): 7.82 µM | TGI (A498 renal): > 68.4 µM | GI50 (A549 NSCLC): 2.18 µM | TGI (A549 NSCLC): 6.43 µM | GI50 (ACHN renal): 2.28 µM | TGI (ACHN renal): 7 µM | GI50 (BT-549 breast): 16.7 µM | TGI (BT-549 breast): 55.2 µM | GI50 (CAKI-1 renal): 1.06 µM | GI50 (CCRF-CEM leukemia): 0.312 µM | TGI (CCRF-CEM leukemia): 3.07 µM | GI50 (COLO 205 colon): 22.3 µM | TGI (COLO 205 colon): > 100 µM | GI50 (DU-145 prostate): 0.189 µM | TGI (DU-145 prostate): 0.404 µM | GI50 (EKVX NSCLC): 8.42 µM | TGI (EKVX NSCLC): > 54.1 µM | GI50 (HCC-2998 colon): 9.43 µM | TGI (HCC-2998 colon): > 100 µM | GI50 (HCT-116 colon): 5.53 µM | TGI (HCT-116 colon): > 53.3 µM | GI50 (HCT-15 colon): 6.76 µM | TGI (HCT-15 colon): > 100 µM | GI50 (HL-60(TB) leukemia): 1.48 µM | TGI (HL-60(TB) leukemia): 3.16 µM | GI50 (HOP-62 NSCLC): 0.542 µM | TGI (HOP-62 NSCLC): 1.13 µM | GI50 (HOP-92 NSCLC): 1.32 µM | TGI (HOP-92 NSCLC): 3.09 µM | GI50 (HS 578T breast): 5.24 µM | TGI (HS 578T breast): > 41.5 µM | GI50 (HT29 colon): 2.73 µM | TGI (HT29 colon): > 21 µM | GI50 (IGROV1 ovarian): 0.152 µM | TGI (IGROV1 ovarian): 0.316 µM | GI50 (K-562 leukemia): 2.65 µM | GI50 (KM12 colon): 1.02 µM | GI50 (LOX IMVI melanoma): 0.189 µM | TGI (LOX IMVI melanoma): 0.351 µM | GI50 (M14 melanoma): 0.175 µM | TGI (M14 melanoma): 0.368 µM | GI50 (MALME-3M melanoma): 1.8 µM | TGI (MALME-3M melanoma): 3.92 µM | GI50 (MCF7 breast): 3.17 µM | TGI (MCF7 breast): 50.1 µM | GI50 (MDA-MB-231 breast): 0.95 µM | GI50 (MDA-MB-435): 7.29 µM | TGI (MDA-MB-435): > 100 µM | GI50 (MOLT-4 leukemia): 3.38 µM | TGI (MOLT-4 leukemia): > 22.5 µM | GI50 (NCI-H226 lung): > 53 µM | TGI (NCI-H226 lung): > 100 µM | GI50 (NCI-H23 lung): 1.19 µM | GI50 (NCI-H460 lung): 11.6 µM | TGI (NCI-H460 lung): > 100 µM | GI50 (NCI-H522 lung): 1.26 µM | TGI (NCI-H522 lung): 2.95 µM | GI50 (NCI/ADR-RES ovarian): 21.3 µM | TGI (NCI/ADR-RES ovarian): > 100 µM | GI50 (OVCAR-3 ovarian): 0.448 µM | TGI (OVCAR-3 ovarian): 1.05 µM | GI50 (OVCAR-4 ovarian): 12.8 µM | TGI (OVCAR-4 ovarian): > 100 µM | GI50 (OVCAR-5 ovarian): 3.79 µM | TGI (OVCAR-5 ovarian): > 26.3 µM | GI50 (OVCAR-8 ovarian): 4.7 µM | TGI (OVCAR-8 ovarian): > 100 µM | GI50 (PC-3 prostate): 0.821 µM | GI50 (RPMI-8226 leukemia): 1.66 µM | TGI (RPMI-8226 leukemia): 3.97 µM | GI50 (RXF 393 renal): 1.06 µM | TGI (RXF 393 renal): 2.75 µM | GI50 (SF-268 CNS): 0.638 µM | TGI (SF-268 CNS): 1.4 µM | GI50 (SF-295 CNS): 28.9 µM | TGI (SF-295 CNS): > 100 µM | GI50 (SF-539 CNS): 1.59 µM | TGI (SF-539 CNS): 2.98 µM | GI50 (SK-MEL-2 melanoma): 1.68 µM | TGI (SK-MEL-2 melanoma): 3.22 µM | GI50 (SK-MEL-28 melanoma): 20.9 µM | TGI (SK-MEL-28 melanoma): > 100 µM | GI50 (SK-MEL-5 melanoma): 2 µM | TGI (SK-MEL-5 melanoma): > 100 µM | GI50 (SK-OV-3 ovarian): 25.2 µM | TGI (SK-OV-3 ovarian): > 75.3 µM | GI50 (SN12C renal): 2 µM | TGI (SN12C renal): > 100 µM | GI50 (SNB-19 CNS): 27.5 µM | TGI (SNB-19 CNS): > 100 µM | GI50 (SNB-75 CNS): 0.862 µM | TGI (SNB-75 CNS): 6.51 µM | GI50 (SR leukemia): 0.537 µM | TGI (SR leukemia): 1.37 µM | GI50 (SW-620 colon): 2.86 µM | TGI (SW-620 colon): > 26.8 µM | GI50 (T-47D breast): 8.76 µM | TGI (T-47D breast): > 100 µM | GI50 (TK-10 renal): 5.41 µM | TGI (TK-10 renal): > 100 µM | GI50 (U251 CNS): 1.62 µM | TGI (U251 CNS): 3.08 µM | GI50 (UACC-257 melanoma): > 100 µM | TGI (UACC-257 melanoma): > 100 µM | GI50 (UACC-62 melanoma): 16.5 µM | TGI (UACC-62 melanoma): > 100 µM | GI50 (UO-31 renal): 0.547 µM | TGI (UO-31 renal): 1.02 µM
